≈ marks a conversion by molar mass, not a printed value.
How the values were obtained:
Neurospora crassa = assay: Antimicrobial activity against Neurospora crassa; assay type: functional
Micrococcus luteus = assay: Antimicrobial activity against Micrococcus luteus; assay type: functional

Row | Compound | MIC (Neurospora crassa) [mg/L] | MIC (Micrococcus luteus) [mg/L]
1 | C[C@@H]1C[C@H](O)/C=C/[C@@H](O)/C=C\C(=O)O1 [MODIOLIDE A] | 33.3 (≈ 168 µM) | 16.7 (≈ 84.3 µM)
2 | C[C@@H]1CC/C=C/[C@@H](O)/C=C\C(=O)O1 [MODIOLIDE B] | 33.3 (≈ 183 µM) | 16.7 (≈ 91.6 µM)

From ChEMBL document CHEMBL1150682, “Modiolides A and B, two new 10-membered macrolides from a marine-derived fungus” (2003)
